Source: PubChem BioAssay AID330 (DTP/NCI, 2004)
“And” between values parts separate entries of the source, which are not always exact repeats. Equal values may be shown once. Inconclusive results and toxic doses are left out. Rule for the calls: active = survival T/C of 150% or more; inactive = T/C below 125% in these data.

Tested on: P388 leukemia ip, CD2F1 mice, survival T/C
Test: NCI In Vivo Anticancer Drug Screen. Data for tumor model P388 Leukemia (intraperitoneal) in CD2F1 (CDF1) mice
Details: endpoint: median survival time, higher = longer survival
Procedure, shortened: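 Mice carrying the transplanted tumor received test compound or vehicle. Survival was recorded in each group, and the value is the treated-group measurement divided by that of the vehicle-treated control group.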

[1] = dose: 50.0 mg/kg/injection, schedule: Q01DX009 (ip), vehicle: saline with Tween-80
[2] = dose: 100.0 mg/kg/injection, schedule: Q01DX009 (ip), vehicle: saline with Tween-80
[3] = dose: 200.0 mg/kg/injection, schedule: Q01DX009 (ip), vehicle: saline with Tween-80
[4] = dose: 50.0 mg/kg/injection, schedule: Q01DX005 (ip), vehicle: saline with Tween-80
[5] = dose: 100.0 mg/kg/injection, schedule: Q01DX005 (ip), vehicle: saline with Tween-80
[6] = dose: 200.0 mg/kg/injection, schedule: Q01DX005 (ip), vehicle: saline with Tween-80
[7] = dose: 50.0 mg/kg/injection, schedule: Q01DX005 (ip), vehicle: Klucel (hydroxypropylcellulose) (HPC)
[8] = dose: 100.0 mg/kg/injection, schedule: Q01DX005 (ip), vehicle: Klucel (hydroxypropylcellulose) (HPC)
[9] = dose: 25.0 mg/kg/injection, schedule: Q01DX009 (ip), vehicle: saline with Tween-80
[10] = dose: 60.0 mg/kg/injection, schedule: Q01DX005 (ip), vehicle: saline with Tween-80

Measured: T/C

COc1ccc(-c2c(C)c(C)nc(Cl)c2C#N)c(OCc2ccccc2)c1OC
inactive: dose: 0.05 mg/kg/injection, schedule: Q01DX009 (ip), vehicle: water 100 % of control | dose: 0.1 mg/kg/injection, schedule: Q01DX009 (ip), vehicle: water 104 % of control | dose: 0.2 mg/kg/injection, schedule: Q01DX009 (ip), vehicle: water 104 % of control | dose: 0.4 mg/kg/injection, schedule: Q01DX009 (ip), vehicle: other 96 % of control | dose: 0.4 mg/kg/injection, schedule: Q01DX009 (ip), vehicle: water 99 % of control | dose: 0.8 mg/kg/injection, schedule: Q01DX009 (ip), vehicle: other 97 % of control | dose: 1.6 mg/kg/injection, schedule: Q01DX009 (ip), vehicle: other 94 % of control | dose: 3.2 mg/kg/injection, schedule: Q01DX009 (ip), vehicle: other 100 % of control | dose: 6.25 mg/kg/injection, schedule: Q01DX009 (ip), vehicle: other 110 % of control | dose: 6.4 mg/kg/injection, schedule: Q01DX009 (ip), vehicle: other 102 % of control | dose: 12.5 mg/kg/injection, schedule: Q01DX009 (ip), vehicle: other 108 % of control | dose: 25.0 mg/kg/injection, schedule: Q01DX009 (ip), vehicle: other 104 % of control | dose: 50.0 mg/kg/injection, schedule: Q01DX009 (ip), vehicle: other 103 % of control | dose: 100.0 mg/kg/injection, schedule: Q01DX009 (ip), vehicle: other 111 % of control | dose: 200.0 mg/kg/injection, schedule: Q01DX009 (ip), vehicle: other 102 % of control | dose: 400.0 mg/kg/injection, schedule: Q01DX009 (ip), vehicle: other 105 % of control

CCN(CC)CCN1N=C(c2ccccc2O)OCC1=O
inactive: [1] 108 % of control | [2] 103 % of control | [3] 98 % of control

CCCCCCC[CH2][Sn]([CH2]CCCCCCC)([NH]S(=O)(=O)c1ccc(C)cc1)[NH]S(=O)(=O)c1ccc(C)cc1
inactive: dose: 25.0 mg/kg/injection, schedule: Q04DX003 (ip), vehicle: saline sonified 100 % of control | dose: 50.0 mg/kg/injection, schedule: Q04DX003 (ip), vehicle: saline sonified 122 % of control | dose: 100.0 mg/kg/injection, schedule: Q04DX003 (ip), vehicle: saline sonified 100 % of control

CC(=O)N/C(=C\c1ccccc1)C(=O)NC(C)C(=O)O (centres undefined)
inactive: [4] 89 % of control | [5] 92 % of control | [6] 86 % of control

CC(C)NC(=O)OCc1ncn(-c2ccccc2)c1COC(=O)NC(C)C
inactive: dose: 12.5 mg/kg/injection, schedule: Q01DX005 (ip), vehicle: Klucel (hydroxypropylcellulose) (HPC) 103 % of control | dose: 25.0 mg/kg/injection, schedule: Q01DX005 (ip), vehicle: Klucel (hydroxypropylcellulose) (HPC) 103 % of control | [7] 87 % of control and 97 % of control | [8] 87 % of control and 91 % of control

CC1(C)C2CCC1(CS(=O)O)C(=O)C2.[Ag] (centres undefined)
inactive: [4] 111 % of control | [5] 105 % of control

Cc1ccc(-c2cssc2=S)cc1
inactive: [9] 96 % of control | [1] 95 % of control | [2] 92 % of control | [3] 90 % of control

CCC/C(C)=C(/C#N)CC
inactive: dose: 25.0 mg/kg/injection, schedule: Q01DX009 (ip), vehicle: Klucel (hydroxypropylcellulose) (HPC) 101 % of control | dose: 50.0 mg/kg/injection, schedule: Q01DX009 (ip), vehicle: Klucel (hydroxypropylcellulose) (HPC) 101 % of control | dose: 100.0 mg/kg/injection, schedule: Q01DX009 (ip), vehicle: Klucel (hydroxypropylcellulose) (HPC) 101 % of control

Cc1cc(N)c([N+](=O)[O-])cc1C
inactive: [1] 101 % of control | [2] 100 % of control | [3] 96 % of control | dose: 400.0 mg/kg/injection, schedule: Q01DX009 (ip), vehicle: saline with Tween-80 95 % of control

O=Cc1c(-c2ccccc2)nc2sccn12
inactive: dose: 50.0 mg/kg/injection, schedule: Q04DX003 (ip), vehicle: Klucel (hydroxypropylcellulose) (HPC) 96 % of control | dose: 100.0 mg/kg/injection, schedule: Q01DX001 (ip), vehicle: Klucel (hydroxypropylcellulose) (HPC) 100 % of control | dose: 100.0 mg/kg/injection, schedule: Q04DX003 (ip), vehicle: Klucel (hydroxypropylcellulose) (HPC) 96 % of control | dose: 200.0 mg/kg/injection, schedule: Q01DX001 (ip), vehicle: Klucel (hydroxypropylcellulose) (HPC) 100 % of control | dose: 200.0 mg/kg/injection, schedule: Q04DX003 (ip), vehicle: Klucel (hydroxypropylcellulose) (HPC) 91 % of control | dose: 400.0 mg/kg/injection, schedule: Q01DX001 (ip), vehicle: Klucel (hydroxypropylcellulose) (HPC) 99 % of control

O=[N+]([O-])c1cccc(/C=C/S(=O)(=O)Cc2ccccc2)c1
inactive: [4] 101 % of control | [5] 100 % of control | [6] 92 % of control

Cc1ccc(S(=O)(=O)N/N=C2/C(=O)NC(=O)C(=O)C2c2nc3ccccc3s2)cc1 (centres undefined)
inactive: [10] 98 % of control | dose: 120.0 mg/kg/injection, schedule: Q01DX005 (ip), vehicle: saline with Tween-80 92 % of control | dose: 240.0 mg/kg/injection, schedule: Q01DX005 (ip), vehicle: saline with Tween-80 100 % of control

CN(Cc1ccc2nc(N)[nH]c(=O)c2c1)c1ccc(C(=O)NC(CCC(=O)O)C(=O)O)cc1 (centres undefined)
inactive: [4] 95 % of control | [5] 102 % of control

O=C(Nc1c(Cl)cccc1Cl)Oc1cccc2cccnc12
inactive: dose: 15.0 mg/kg/injection, schedule: Q01DX005 (ip), vehicle: saline with Tween-80 97 % of control | dose: 30.0 mg/kg/injection, schedule: Q01DX005 (ip), vehicle: saline with Tween-80 107 % of control | [10] 100 % of control and 92 % of control

CSc1ncnc2c1cnn2C1OC(CO)C(O)C1O (centres undefined)
inactive: dose: 6.25 mg/kg/injection, schedule: Q01DX009 (ip), vehicle: saline with Tween-80 104 % of control | dose: 12.5 mg/kg/injection, schedule: Q01DX009 (ip), vehicle: saline with Tween-80 98 % of control | [9] 116 % of control | [1] 100 % of control

O=C(O)C1CCC(CNCC2C(=O)OC3CCC4C(O)CC(O)C4CC32)CC1 (centres undefined)
inactive: dose: 100.0 mg/kg/injection, schedule: Q04DX002 (ip), vehicle: saline 97 % of control | dose: 200.0 mg/kg/injection, schedule: Q04DX002 (ip), vehicle: saline 100 % of control | dose: 400.0 mg/kg/injection, schedule: Q04DX002 (ip), vehicle: saline 105 % of control

CC(C(=O)O)[As](=O)(O)O (centres undefined)
inactive: dose: 100.0 mg/kg/injection, schedule: Q04DX003 (ip), vehicle: saline 102 % of control | dose: 200.0 mg/kg/injection, schedule: Q04DX003 (ip), vehicle: saline 99 % of control | dose: 400.0 mg/kg/injection, schedule: Q04DX003 (ip), vehicle: saline 98 % of control

[N-]=[N+]=CC(=O)NCC(=O)NNC(=O)c1ccccc1
inactive: dose: 3.12 mg/kg/injection, schedule: Q01DX009 (ip), vehicle: saline 92 % of control | dose: 6.25 mg/kg/injection, schedule: Q01DX009 (ip), vehicle: saline 87 % of control | dose: 12.5 mg/kg/injection, schedule: Q01DX009 (ip), vehicle: saline 100 % of control | dose: 25.0 mg/kg/injection, schedule: Q01DX009 (ip), vehicle: saline 87 % of control

S=C1NC2(CCCCCC2)NN1c1ccccc1
inactive: [1] 97 % of control | [2] 94 % of control | [3] 91 % of control

Cn1c(=O)oc2cc(N)c(Br)cc21
inactive: [7] 90 % of control | [8] 92 % of control | dose: 200.0 mg/kg/injection, schedule: Q01DX005 (ip), vehicle: Klucel (hydroxypropylcellulose) (HPC) 94 % of control
